Like-named read-outs stand apart in the source and are kept apart here.
Columns and labels:
[1] = Plasma pharmacokinetics of BMS-986142, SAD; assay type: in vivo; conditions: human, oral; for AUC(0-t): n = 6, read-out: AUC(0-T) geometric mean (%CV); for Cmax: n = 6, read-out: Cmax geometric mean (%CV)
Procedure: Eligible participants were confined to the clinical facility (WCCT Global, LLC, Cypress, CA) the day before dosing (day −1) and randomized to receive SAD or MAD treatment under fasting conditions for 10 h. In the SAD group, eight healthy non-Japanese participants were assigned to each of up to six sequential dose panels (single oral doses of 5, 15, 50, 100, 300, and 900 mg BMS-986142) or placebo. Within each dose panel, participants were randomized in a 3:1 ratio to receive BMS-986142 (n = 6) or placebo (n = 2). In the MAD group, eight healthy non-Japanese participants were assigned to each of four sequential dose panels (daily oral doses of 25, 75, 200, and 350 mg BMS-986142) or placebo. Within each dose panel, participants were randomized in a 3:1 ratio to receive once-daily (QD) doses of BMS-986142 or placebo from day 1 to day 14 (Online Resource 1). Escalation to the next dose level in SAD and MAD was conducted after safety assessment had been completed and the treatment was considered safe and well tolerated. Additionally, dose levels in MAD were selected not to exceed the steady-state exposure of BMS-986142 (AUC: 22,920 ng h/mL) at NOAEL in rats obtained from a 1-month GLP toxicology study.
Blood samples for the measurement of BMS-986142 were collected up to 168 h after dosing of BMS-986142 on day 1 for participants in SAD. In MAD, blood samples were collected up to 24 h on day 1 and up to 120 h on day 14 (the last day of treatment). Blood samples for the measurement of MTX were collected up to 48 h after dosing of MTX on days 1 and 8.
Plasma samples were analyzed for BMS-986142 levels with a validated method using liquid chromatography tandem mass spectrometry (LC-MS/MS) detection. The analyte was extracted from 50 μL of plasma using a liquid–liquid extraction method. Methyl tert-butyl ether was used as the extraction solvent. The lower limit of quantification (LLOQ) was 1.00 ng/mL in plasma. Plasma samples were analyzed for methotrexate levels using LC-MS/MS detection. Analytes were isolated from 50 μL plasma through solid phase extraction using Waters Oasis MAX, 10-mg, 96-well SPE plates. The final extract was analyzed using LC-MS/MS detection. LLOQ was 1.00 ng/mL in plasma. Detailed methodology quantitating the concentration level of BMS-986142 and MTX is provided in Online Resource 10.
Individual subject pharmacokinetic parameters for BMS-986142 and MTX were derived by a non-compartmental method using validated PK software (WinNonLin version 6.3; Pharsight Corporation, Mountain View, CA, USA). The following PK parameters for BMS-986142 and MTX were derived from plasma concentration versus time data: maximum observed plasma concentration (Cmax); minimum observed plasma concentration (Cmin); time to maximum observed plasma concentration (Tmax); area under the plasma concentration-time curve from time zero to the time of the last quantifiable concentration (AUC(0-T)), from time zero extrapolated to infinite time (AUC(inf)), and in one dosing interval (AUC(TAU)); terminal plasma half-life (T1/2); and AUC accumulation index (AI_AUC). AI_AUC was calculated to divide AUC(TAU) on day 14 by AUC(TAU) on day 1.
Summary statistics were tabulated for all PK parameters by treatment and study days. Geometric mean (Gmean) and coefficient of variation (CV) are presented for Cmax, AUC(0-T), AUC(inf), AI_AUC, Cmin, and AUC(TAU); arithmetic mean and standard deviation (SD) are presented for T1/2; and median and range are presented for Tmax. Dose proportionality was assessed using the previously described power model. Briefly, the simple linear regression was applied to the natural log of the PK parameters on the natural log of dose using the following equation (Eq. 1).1 ElogPKParameterDose=α+β∗logDose.
A slope (β) equal to 1 would indicate perfect dose proportionality. For each PK parameter (Cmax, AUC(0-T), AUC(TAU), and AUC(inf)), point estimates and 90% CI of the slopes were calculated.

[2] = tested on: collagen-induced arthritis model; conditions: combined with standard of care agents (e.g., MTX); cited from earlier work

Cc1c(-c2c(F)cc(C(N)=O)c3[nH]c4c(c23)CC[C@H](C(C)(C)O)C4)cccc1-n1c(=O)c2cccc(F)c2n(C)c1=O [BMS-986142, 6-fluoro-5-(R)-(3-(S)-(8-fluoro-1-methyl-2,4-dioxo-1,2-dihydroquinazolin-3(4H)-yl)-2-methylphenyl)-2-(S)-(2-hydroxypropan-2-yl)-2,3,4,9-tetrahydro-1H-carbazole-8-carboxamide] showed a half-life ([1]; both sexes, 5 mg, at low dose levels, read-out: T1/2 (converted)) of roughly 7 h, a half-life ([1]; both sexes, at therapeutic doses, read-out: Mean T1/2) of no more than 11 h and a half-life ([1]; both sexes, single dose, 5–900 mg dose range, read-out: Mean T1/2 (half-life), range over doses) of 7 to 11 h. It also gave a Tmax ([1]; both sexes, single dose, 5–900 mg dose range, read-out: Median Tmax (time of peak concentrations)) of no more than 2 h, a half-life ([1]; 5 mg, SAD day 1, 5 mg, n = 5, read-out: T1/2 mean (SD) (converted)) of 6.87 h and a half-life ([1]; 15 mg, SAD day 1, 15 mg, n = 6, read-out: T1/2 mean (SD) (converted)) of 8.02 h. The half-life ([1]; 50 mg, SAD day 1, 50 mg, n = 6, read-out: T1/2 mean (SD) (converted)) was 9.7 h, the half-life ([1]; 100 mg, SAD day 1, 100 mg, n = 6, read-out: T1/2 mean (SD) (converted)) was 10.3 h and the half-life ([1]; 300 mg, SAD day 1, 300 mg, n = 6, read-out: T1/2 mean (SD) (converted)) was 10.6 h. The half-life ([1]; 900 mg, SAD day 1, 900 mg, n = 6, read-out: T1/2 mean (SD) (converted)) was 10.7 h, the AUC(0-inf) ([1]; SAD day 1, 5 mg, n = 5, read-out: AUC(inf) geometric mean (%CV)) was 0.102 µg·h/mL and the AUC(0-t) ([1]; SAD day 1, 5 mg) was 0.0831 µg·h/mL. For the same compound, the Cmax ([1]; SAD day 1, 5 mg) was 0.00903 µg/mL, the Tmax ([1]; SAD day 1, 5 mg, n = 6, read-out: Tmax median (min, max)) was 2.03 h and the AUC(0-t) ([1]; SAD day 1, 15 mg) was 0.369 µg·h/mL. The AUC(0-inf) ([1]; SAD day 1, 15 mg, n = 6, read-out: AUC(inf) geometric mean (%CV)) was 0.388 µg·h/mL, the Cmax ([1]; SAD day 1, 15 mg) was 0.0369 µg/mL and the Tmax ([1]; SAD day 1, 15 mg, n = 6, read-out: Tmax median (min, max)) was 2 h. The AUC(0-t) ([1]; SAD day 1, 50 mg) was 1.56 µg·h/mL, the AUC(0-inf) ([1]; SAD day 1, 50 mg, n = 6, read-out: AUC(inf) geometric mean (%CV)) was 1.59 µg·h/mL and the Cmax ([1]; SAD day 1, 50 mg) was 0.185 µg/mL. It also gave a Tmax ([1]; SAD day 1, 50 mg, n = 6, read-out: Tmax median (min, max)) of 1 h, an AUC(0-t) ([1]; SAD day 1, 100 mg) of 3 µg·h/mL and an AUC(0-inf) ([1]; SAD day 1, 100 mg, n = 6, read-out: AUC(inf) geometric mean (%CV)) of 3.02 µg·h/mL. The Cmax ([1]; SAD day 1, 100 mg) was 0.311 µg/mL, the Tmax ([1]; SAD day 1, 100 mg, n = 6, read-out: Tmax median (min, max)) was 1.5 h and the AUC(0-t) ([1]; SAD day 1, 300 mg) was 11.3 µg·h/mL. The AUC(0-inf) ([1]; SAD day 1, 300 mg, n = 6, read-out: AUC(inf) geometric mean (%CV)) was 11.4 µg·h/mL, the Cmax ([1]; SAD day 1, 300 mg) was 1.08 µg/mL and the Tmax ([1]; SAD day 1, 300 mg, n = 6, read-out: Tmax median (min, max)) was 1.02 h. For the same compound, the AUC(0-t) ([1]; SAD day 1, 900 mg) was 28 µg·h/mL, the AUC(0-inf) ([1]; SAD day 1, 900 mg, n = 6, read-out: AUC(inf) geometric mean (%CV)) was 28.1 µg·h/mL and the Cmax ([1]; SAD day 1, 900 mg) was 1.88 µg/mL. For the same compound, the Tmax ([1]; SAD day 1, 900 mg, n = 6, read-out: Tmax median (min, max)) was 2 h and the “Efficacy against disease endpoints in combination” value [2] was “Added benefit against disease endpoints”.
